Measurements from article PMC8153610, “Oleacein Intestinal Permeation and Metabolism in Rats Using an In Situ Perfusion Technique” (Pharmaceutics, 2021).
Like-named read-outs stand apart in the source and are kept apart here.

Assays:
[1] = Stability in the perfusion solution (transport medium) at 37 °C; type: physicochemical; details: for Presence of degradation products / derivatives in the perfusion solution (stability study): OLEA in transport medium, 60 min
Protocol: The transport medium (TM; pH 7, 9.7 g/L HBSS buffered with HEPES 10 mM) was used to infuse the compounds via the intestine. […] Red phenol was assayed at 0.1 mg/mL. The stability of these test compounds, sampled at different times, was monitored in the perfusion solution at 37 °C for 60 min. Stability study and lumen samples: The stability and perfusate OLEA samples were defrosted and centrifuged (11,000× g, 4 °C, 10 min), and 100 µL of the upper phase was transferred to vials for analysis.

[2] = Metabolite profiling in lumen, plasma and ileum tissue after SPIP (LC–ESI–LTQ–Orbitrap–MS); type: in vivo
Protocol: The SPIP studies were performed in anesthetized rats according to the method described by López-Yerena and coworkers; the donor blood and surgical procedure (Figure 1) were as described in that study. Regarding the procedure of donor blood, the rats were anesthetized by isoflurane inhalation (2.5%), and the whole blood was collected via cardiac puncture. […]. In the case of the rats that underwent surgery, the rats received intraperitoneal administration of pentobarbital sodium (Dolethal) at a dose of 60 mg/kg, and a maintenance dose of isoflurane (1.5%) was given 50 min after the induction dose. Body temperature was maintained at 37 ± 0.5 °C throughout the experiment by means of a homeothermic blanket. An ileal segment of approximately 7–10 cm was cannulated. […] The phenol red included in the perfusion solution was used as non-absorbable marker for measuring water transport. To avoid the oxidation of OLEA, we carried out the SPIP experiments in a laboratory room with infrared light. Samples of both the intestinal lumen and mesenteric blood were collected simultaneously at 5 min intervals for 60 min. The outflow perfusate samples were collected in 2 mL amber vials and the blood was collected in pre-weighed lithium-heparinized tubes (BD Vacutainer). Next, the perfusate samples were centrifuged (7516× g for 10 min at 4 °C), and the tubes with blood samples were weighed and centrifuged (3000× g for 10 min at 4 °C). The supernatants were collected and immediately stored at −80 °C awaiting analysis by LC–ESI–LTQ–Orbitrap–MS.
Plasma: The extraction of OLEA and its metabolites was carried out with protein precipitation. Initially, the samples were thawed and centrifuged (11,000× g, 10 min at 4 °C). To precipitate proteins, we blended 100 µL of plasma with cold acetonitrile containing 2% of formic acid (1:5 v/v). Samples were vortex-mixed for 1 min and kept at −20 °C for 20 min. The samples were then centrifuged (11,000× g, 4 °C, 10 min), and finally 100 µL of the supernatant was transferred to vials for analysis.
Stability study and lumen samples: The stability and perfusate OLEA samples were defrosted and centrifuged (11,000× g, 4 °C, 10 min), and 100 µL of the upper phase was transferred to vials for analysis. […].
Ileum tissue: The intestinal segment perfunded with OLEA in the SPIP experiments was also analyzed to quantify the OLEA and its metabolites retained in the tissue. First, the intestinal segment was rinsed by several perfusions with TM and then cut into small sections and homogenized after the addition of water/acetonitrile (1:1 (v/v) with 0.1% ascorbic acid) with a small tissue disruptor (T10 basic ULTRA-TURRAX®, IKA laboratory technology, Staufen, Germany). The samples were sonicated in an ice bath (5 min), shaken for 1 min, and centrifuged (11,000× g, 4 °C, 10 min). To precipitate proteins, we blended 100 µL of the upper layer with cold acetonitrile containing 2% of formic acid (1:3 v/v). Samples were vortex-mixed for 1 min, kept at −20 °C for 20 min, and centrifuged again (11,000× g, 4 °C, 10 min) before analyzing the supernatant.
The quantification of OLEA and red phenol in the samples and the profiling and structural characterization of OLEA metabolites was carried out using LC–ESI–LTQ–Orbitrap–MS. LC separation was performed using an Accela chromatograph (Thermo Scientific, Hemel Hempstead, UK) equipped with a quaternary pump, a photodiode array detector, and a thermostated autosampler. A 5-μL sample aliquot was injected onto an Acquity^TM UPLC® BEH C18 Column (2.1 × 100 mm, i.d., 1.7 µm particle size) coupled to an Acquity^TM UPLC® BEH C18 Pre-Column (2.1 × 5 mm, i.d., 1.7 µm particle size) (Waters Corporation®, Wexford, Ireland) with the column temperature set at 50 °C. Eluent A was 0.05% (v/v) formic acid in water, and eluent B was 0.05% formic acid in methanol. […]. […]

[3] = cited from earlier work
[4] = Single-pass intestinal perfusion (SPIP) with mesenteric blood sampling: permeability and absorption; type: in vivo; details: ileum, SPIP in rats
Protocol: The transport medium (TM; pH 7, 9.7 g/L HBSS buffered with HEPES 10 mM) was used to infuse the compounds via the intestine. […] Red phenol was assayed at 0.1 mg/mL. The stability of these test compounds, sampled at different times, was monitored in the perfusion solution at 37 °C for 60 min.
Differences were considered significant at p < 0.05.

[5] = cited from earlier work; remark: listed apart in the source
[6] = parameters: method as in PMID 26904279; details: oral administration 300 mg/kg in rats; cited from earlier work
[7] = after OLEA perfusion (SPIP, 60 min)

With `OCCc1ccc(O)c(O)c1` [M2, hydroxytyrosol] the “Presence of degradation products / derivatives in the perfusion solution (stability study)” value [1] was “absence”, the “Detection in lumen, plasma and ileum tissue samples” value (from here on “Detection in lumen”) ([2]; rat, in vivo) was “found in lumen, plasma, and ileum tissue” and the “Time of highest concentration” value ([2]; rat, in vivo) was 55 min. For the same compound, the “Metabolite level in plasma relative to lumen (fold higher)” value ([2]; rat, in vivo, 60 min) was 27 fold.
In the case of `C/C=C(/CO)C(CC=O)CC(=O)OCCc1ccc(O)c(O)c1` (stereo not shown) [M3], the “Detection in lumen” value [2, 7] is reported as “detected in lumen, plasma, and ileum tissue”.
In the case of `C/C=C(/C=O)C(CC(=O)O)CC(=O)OCCc1ccc(O)c(O)c1` (stereo not shown) [M4], the “Detection in lumen” value [2, 7] is reported as “detected in lumen, plasma, and ileum tissue”, the “Metabolite level in plasma relative to lumen (fold higher)” value ([2]; after OLEA perfusion, at 60 min) is reported as 29 fold and the “Time of highest concentration” value ([2]; plasma and lumen samples, after OLEA perfusion, p < 0.05) is reported as 60 min.
With `C/C=C(/C=O)C(CC(=O)OCCc1ccc(O)c(O)c1)CC(O)O` (stereo not shown) [M5] the “Presence of degradation products / derivatives in the perfusion solution (stability study)” value [1] was “traces” and the “Detection in lumen” value [2, 7] was “detected in lumen, plasma, and ileum tissue”.
With `C/C=C(/C=O)C(CC=O)CC(=O)OCCc1ccc(O)c(OC)c1` (stereo not shown) [M6] the “Detection in lumen” value [2, 7] was “found in ileum tissue samples but not in the plasma and lumen”.
In the case of `C/C=C(/C=O)C(CC(=O)O)CC(=O)OCCc1ccc(O)c(OC)c1` (stereo not shown) [M7], the “Detection in lumen” value [2, 7] is reported as “detected in plasma and, after being secreted by an efflux membrane protein, in lumen samples”.
In the case of `C/C=C(/C=O)C(CC(=O)OCCc1ccc(O)c(OC)c1)CC(O)O` (stereo not shown) [M8], the “Detection in lumen” value [2, 7] is reported as “found in ileum tissue samples but not in the plasma and lumen”.
For `CC=C(CO)C(CC=O)CC(=O)OCCc1ccc(OC2OC(C(=O)O)C(O)C(O)C2O)c(O)c1` (stereo not shown) [M9], the “Main product of phase II biotransformation” value ([2]; all the samples (plasma, lumen, ileum tissue)) was “main product of phase II biotransformation reactions in all the samples”, the “Time of highest relative abundance” value ([2]; lumen samples, after OLEA perfusion, p < 0.05) was 55 to 60 min and the “Time of highest relative abundance” value ([2]; plasma, after OLEA perfusion, p < 0.05) was 45 to 60 min.
For `CC=C(C=O)C(CC(=O)OCCc1ccc(OC2OC(C(=O)O)C(O)C(O)C2O)c(OC)c1)CC(O)O` (stereo not shown) [M11], the “Detection in lumen” value [2, 7] was “detected in lumen and ileum tissue samples but not in plasma”.
In the case of `COc1ccc2cc([C@H](C)C(=O)O)ccc2c1` [Naproxen], the “Peff ± SD” value ([3]; Colon) is given as 2.06 ± 1.04 × 10^−4 cm/s, the “Peff ± SD” value ([3]; Ileum, ref 56) is given as 1.78 ± 0.52 × 10^−4 cm/s and the “Peff ± SD” value ([3]; Ileum, ref 57) is given as 1.17 ± 0.23 × 10^−4 cm/s. The “Peff ± SD” value ([3]; Jejunum, ref 33) was 1.19 ± 0.12 × 10^−4 cm/s, the “Peff ± SD” value ([3]; Jejunum, ref 56) was 1.47 ± 0.25 × 10^−4 cm/s and the “Peff ± SD” value ([3]; Jejunum, ref 58) was 1.17 ± 0.23 × 10^−4 cm/s.
In the case of `C/C=C(/C=O)[C@@H](CC=O)CC(=O)OCCc1ccc(O)c(O)c1` [OLEA, Oleacein], the “Absorption (%)” value ([4]; mean ± SD, n = 4) is reported as 48.98 ± 12.27%, the “Mean permeability ratio (Peff) of OLEA/naproxen” value ([4]; p > 0.05) is reported as 1.24 and the Effective intestinal permeability (Peff) at 60 min ([4]; rat, pH 7, luminal disappearance, mean ± SD, n = 4, read-out: Intestinal effective permeability coefficient (Peff) ± SD) is reported as 183 ± 18 ×10⁻⁶ cm/s. For the same compound, the “Stability in the perfusion solution” value ([1]; over 60 min, p > 0.05) was “remained stable”, the “log P (octanol/water)” value ([5]; ref 16) was 1.02 and the “log P (octanol/water)” value ([5]; ref 60) was 1.53. For the same compound, the “Detection in portal plasma” value [6] was “did not observe”.
In the case of elenolic acid, the “Detection in lumen” value [2, 7] is reported as “not detected in any sample”.
